Molecules are shown by their SMILES.

One assay has as its target JAK2 (Homo sapiens (Human), UniProt O60674). As to the kind of experiment: Biochemical JAK kinase assay (LanthaScreen), JAK2. The settings on record: for Ki: read-out: JAK2 pKi (converted). In short, it runs like this:
(§1)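 LanthaScreen format: phospho-STAT1 (pTyr701) detected with 2 nM Tb antibody after 10 mM EDTA quench. Kinase step used Km-level ATP and 200 nM STAT1 peptide, 1 h at ambient after 1 h pre-incubation. Inhibition fitted to IC50, reported as pKi.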

A further assay addresses JAK1 (Homo sapiens (Human), UniProt P23458). As to the kind of experiment: Biochemical JAK kinase assay (LanthaScreen), JAK1. The settings on record: for Ki: read-out: JAK1 pKi (converted). The method in brief: as §1
Assay [1] relates to IL-13 induced STAT6 phosphorylation in BEAS-2B human lung epithelial cells. As to the kind of experiment: Cellular JAKI potency assay (BEAS-2B). Type of assay: cell-based. The settings on record: Homo sapiens, BEAS-2B, BEAS-2B cells, read-out: BEAS2B pIC50 (converted). In short, it runs like this:
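AlphaLISA SureFire detection of Tyr641 pSTAT6 in lysates gave IC50s (4-parameter fit, expressed as pIC50). Cells: human BEAS-2B, exposed 1 h at 37 °C to compound dose series at 0.1% DMSO, then 30 min to IL-13 added at 80 ng/mL in HEPES-buffered HBSS with BSA.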

Sequence of JAK2 (O60674 whole entry): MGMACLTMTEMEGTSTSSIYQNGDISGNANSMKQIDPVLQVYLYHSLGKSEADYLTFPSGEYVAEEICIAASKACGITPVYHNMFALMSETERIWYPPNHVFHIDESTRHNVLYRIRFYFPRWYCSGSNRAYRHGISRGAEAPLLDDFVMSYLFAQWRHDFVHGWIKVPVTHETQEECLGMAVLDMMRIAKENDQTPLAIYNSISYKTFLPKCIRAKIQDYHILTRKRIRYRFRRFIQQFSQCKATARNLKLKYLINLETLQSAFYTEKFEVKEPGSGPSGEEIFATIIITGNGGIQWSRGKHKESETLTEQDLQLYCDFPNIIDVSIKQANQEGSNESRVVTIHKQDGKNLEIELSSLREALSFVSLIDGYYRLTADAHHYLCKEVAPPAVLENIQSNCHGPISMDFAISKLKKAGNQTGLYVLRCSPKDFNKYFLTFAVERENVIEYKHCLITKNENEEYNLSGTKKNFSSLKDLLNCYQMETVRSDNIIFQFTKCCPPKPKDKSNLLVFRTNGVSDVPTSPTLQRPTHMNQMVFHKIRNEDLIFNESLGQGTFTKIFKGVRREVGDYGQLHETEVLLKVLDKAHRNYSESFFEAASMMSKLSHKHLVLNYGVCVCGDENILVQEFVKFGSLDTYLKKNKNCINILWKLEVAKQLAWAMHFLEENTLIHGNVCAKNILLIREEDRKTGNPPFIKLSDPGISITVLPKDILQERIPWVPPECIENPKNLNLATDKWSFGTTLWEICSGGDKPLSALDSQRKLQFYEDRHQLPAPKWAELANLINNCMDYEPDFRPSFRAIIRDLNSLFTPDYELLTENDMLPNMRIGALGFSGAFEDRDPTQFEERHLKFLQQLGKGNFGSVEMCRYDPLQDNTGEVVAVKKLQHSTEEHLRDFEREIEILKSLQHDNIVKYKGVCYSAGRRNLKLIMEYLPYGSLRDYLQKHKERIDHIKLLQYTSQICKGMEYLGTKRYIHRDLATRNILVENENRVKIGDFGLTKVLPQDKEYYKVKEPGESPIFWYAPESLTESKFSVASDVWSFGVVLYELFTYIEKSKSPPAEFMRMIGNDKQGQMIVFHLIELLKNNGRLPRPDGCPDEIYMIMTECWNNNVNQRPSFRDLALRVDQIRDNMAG
Sequence of JAK1 (P23458 whole entry): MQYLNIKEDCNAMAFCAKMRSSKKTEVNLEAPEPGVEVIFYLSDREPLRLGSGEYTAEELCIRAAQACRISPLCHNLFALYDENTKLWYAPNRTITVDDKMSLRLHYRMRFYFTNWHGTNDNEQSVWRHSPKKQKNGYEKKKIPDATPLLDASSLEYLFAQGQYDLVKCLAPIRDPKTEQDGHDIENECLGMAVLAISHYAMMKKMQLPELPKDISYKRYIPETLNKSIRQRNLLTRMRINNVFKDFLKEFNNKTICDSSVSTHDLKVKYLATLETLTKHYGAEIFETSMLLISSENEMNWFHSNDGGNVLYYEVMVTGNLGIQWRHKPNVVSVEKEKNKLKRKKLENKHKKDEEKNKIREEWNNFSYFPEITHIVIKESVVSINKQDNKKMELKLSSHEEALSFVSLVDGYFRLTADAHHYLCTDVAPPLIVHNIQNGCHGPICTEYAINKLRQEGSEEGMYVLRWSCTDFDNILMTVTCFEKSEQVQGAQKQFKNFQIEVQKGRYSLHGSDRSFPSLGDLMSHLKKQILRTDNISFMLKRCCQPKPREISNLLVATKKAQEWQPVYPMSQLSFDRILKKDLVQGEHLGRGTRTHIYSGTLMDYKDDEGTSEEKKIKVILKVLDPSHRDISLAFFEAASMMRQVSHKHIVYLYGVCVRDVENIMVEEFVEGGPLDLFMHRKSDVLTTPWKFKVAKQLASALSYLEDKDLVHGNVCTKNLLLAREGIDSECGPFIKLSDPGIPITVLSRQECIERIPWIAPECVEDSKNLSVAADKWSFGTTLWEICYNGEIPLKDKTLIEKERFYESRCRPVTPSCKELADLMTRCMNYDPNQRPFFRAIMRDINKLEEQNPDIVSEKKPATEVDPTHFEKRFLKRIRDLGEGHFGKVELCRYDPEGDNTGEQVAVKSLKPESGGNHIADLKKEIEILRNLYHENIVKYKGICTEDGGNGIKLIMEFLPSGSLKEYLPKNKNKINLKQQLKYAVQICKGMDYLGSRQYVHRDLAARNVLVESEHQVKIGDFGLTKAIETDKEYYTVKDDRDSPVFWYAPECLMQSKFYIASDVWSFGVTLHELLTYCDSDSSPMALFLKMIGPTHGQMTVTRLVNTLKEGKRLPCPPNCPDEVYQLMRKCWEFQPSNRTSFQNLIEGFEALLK

As for `CCc1cc(O)ccc1-c1ccc2c(-c3nc(C4=C[C@H](CO)N(C5COC5)C4)c[nH]3)n[nH]c2c1F` [Example 273], the “JAK2 pKi” value on JAK2 was “A (A represents a pKi value ≥10 (Ki≤0.1 nM))”. Moreover, the Ki on JAK1 is 0.1 to 1 nM. Besides, the IC50 in assay [1] is 10 to 31.6 nM.
For the compound `CCc1cc(O)ccc1-c1ccc2c(-c3nc(C4=C[C@H](CO)N(C5CCOCC5)C4)c[nH]3)n[nH]c2c1F` [Example 274], the “JAK2 pKi” value at JAK2 was “A (A represents a pKi value ≥10 (Ki≤0.1 nM))”. The “JAK1 pKi” value on JAK1 was “A (A represents a pKi value ≥10 (Ki≤0.1 nM))”. Moreover, the IC50 in assay [1] was 10 to 31.6 nM.
In the case of `CCc1cc(O)ccc1-c1ccc2c(-c3nc(C4=CC[C@H](C)N(CC(=O)NC)C4)c[nH]3)n[nH]c2c1F` [Example 275], the Ki at JAK2 and on JAK1 was 0.1 to 1 nM in each case. Besides, in assay [1], the IC50 is 10 to 31.6 nM.
In the case of `CCc1cc(O)ccc1-c1ccc2c(-c3nc(C4=CC[C@H](C)N(CCS(C)(=O)=O)C4)c[nH]3)n[nH]c2c1F` [Example 276], the Ki at JAK2 is 0.1 to 1 nM; on JAK1, 1 to 10 nM. For the same compound, the IC50 in assay [1] is 31.6 to 100 nM.
As for `CCc1cc(O)ccc1-c1ccc2c(-c3nc(C4=CC[C@H](C)N(CCS(=O)(=O)NC)C4)c[nH]3)n[nH]c2c1F` [Example 277], the Ki at JAK2 was 0.1 to 1 nM; on JAK1 it was 1 to 10 nM. Also, the IC50 in assay [1] is 31.6 to 100 nM.
The matching figures for `CCc1cc(O)ccc1-c1ccc2c(-c3nc(C4=CC[C@H](C)N(CCNS(C)(=O)=O)C4)c[nH]3)n[nH]c2c1F` [Example 278]: 0.1 to 1 nM, 0.1 to 1 nM and 10 to 31.6 nM.
As to `CCc1cc(O)ccc1-c1ccc2c(-c3nc(C4=CCN(CC)C4)c[nH]3)n[nH]c2c1F` [Example 283], the “JAK2 pKi” value on JAK2 is given as “A (A represents a pKi value ≥10 (Ki≤0.1 nM))”. Also, at JAK1, the “JAK1 pKi” value is listed as “A (A represents a pKi value ≥10 (Ki≤0.1 nM))”. Also, the IC50 in assay [1] is 3.16 to 10 nM.
Consider `CCc1cc(O)c(F)cc1-c1ccc2c(-c3nc(C4=CCNCC4)c[nH]3)n[nH]c2c1` [Example 284], for which the “JAK2 pKi” value on JAK2 is “A (A represents a pKi value ≥10 (Ki≤0.1 nM))”. Besides, at JAK1, the “JAK1 pKi” value was “A (A represents a pKi value ≥10 (Ki≤0.1 nM))”. The IC50 in assay [1] was 3.16 to 10 nM.
Regarding `CCc1cc(O)c(F)cc1-c1ccc2c(-c3nc(C4=CCNC4)c[nH]3)n[nH]c2c1` [Example 285], the “JAK2 pKi” value on JAK2 was “A (A represents a pKi value ≥10 (Ki≤0.1 nM))”. Besides, the “JAK1 pKi” value at JAK1 is “A (A represents a pKi value ≥10 (Ki≤0.1 nM))”. Besides, the IC50 in assay [1] is 3.16 to 10 nM.
As for `CCOC(=O)C[C@H]1C=C(c2c[nH]c(-c3n[nH]c4c(F)c(-c5ccc(O)cc5CC)ccc34)n2)CN1` [Example 286], the Ki at JAK2 and on JAK1 was 0.1 to 1 nM each time. Besides, the IC50 in assay [1] was 3.16 to 10 nM.
Turning to `CCc1cc(O)ccc1-c1ccc2c(-c3nc(C4=CCN([C@H]5CC[C@@H](O)CC5)C4)c[nH]3)n[nH]c2c1` [Example 287], the “JAK2 pKi” value on JAK2 was “A (A represents a pKi value ≥10 (Ki≤0.1 nM))”. For the same compound, the “JAK1 pKi” value at JAK1 is “A (A represents a pKi value ≥10 (Ki≤0.1 nM))”. For the same compound, in assay [1], the IC50 is 3.16 to 10 nM.
In the case of `CCCN1CC=C(c2c[nH]c(-c3n[nH]c4c(F)c(-c5ccc(O)cc5CC)ccc34)n2)C1` [Example 288], on JAK2, the “JAK2 pKi” value is given as “A (A represents a pKi value ≥10 (Ki≤0.1 nM))”. For the same compound, at JAK1, the “JAK1 pKi” value is “A (A represents a pKi value ≥10 (Ki≤0.1 nM))”. In addition, in assay [1], the IC50 was 3.16 to 10 nM.
`CCc1cc(O)ccc1-c1ccc2c(-c3nc(C4=C[C@H](CO)N(C)C4)c[nH]3)n[nH]c2c1F` [Example 289]: on JAK2, the “JAK2 pKi” value was “A (A represents a pKi value ≥10 (Ki≤0.1 nM))”. Moreover, the “JAK1 pKi” value on JAK1 was “A (A represents a pKi value ≥10 (Ki≤0.1 nM))”. Moreover, the IC50 in assay [1] is 3.16 to 10 nM.
Take `CCc1cc(O)ccc1-c1ccc2c(-c3nc(C4=CCN(CC5CC5)C4)c[nH]3)n[nH]c2c1F` [Example 290]: at JAK2, the “JAK2 pKi” value is on record as “A (A represents a pKi value ≥10 (Ki≤0.1 nM))”. For the same compound, the “JAK1 pKi” value at JAK1 is reported as “A (A represents a pKi value ≥10 (Ki≤0.1 nM))”. Besides, the IC50 in assay [1] was 3.16 to 10 nM.

These data come from US20240092758A1, “IMIDAZOLO INDAZOLE COMPOUNDS AS JAK INHIBITORS” (Theravance Biopharma R&D IP, LLC, priority 2021, published 2024).
